ChEMBL document CHEMBL4020811, “JAK2 JH2 Fluorescence Polarization Assay and Crystal Structures for Complexes with Three Small Molecules” (ACS Med Chem Lett, 2017)

Molecular target: Tyrosine-protein kinase JAK2 (Homo sapiens, UniProt O60674)
Assay: Binding affinity to wild type JAK2 JH2 domain (unknown origin) by competitive fluorescence polarization assay

Tyrosine-protein kinase JAK2, sequence (O60674 whole entry, the tested form may be a part): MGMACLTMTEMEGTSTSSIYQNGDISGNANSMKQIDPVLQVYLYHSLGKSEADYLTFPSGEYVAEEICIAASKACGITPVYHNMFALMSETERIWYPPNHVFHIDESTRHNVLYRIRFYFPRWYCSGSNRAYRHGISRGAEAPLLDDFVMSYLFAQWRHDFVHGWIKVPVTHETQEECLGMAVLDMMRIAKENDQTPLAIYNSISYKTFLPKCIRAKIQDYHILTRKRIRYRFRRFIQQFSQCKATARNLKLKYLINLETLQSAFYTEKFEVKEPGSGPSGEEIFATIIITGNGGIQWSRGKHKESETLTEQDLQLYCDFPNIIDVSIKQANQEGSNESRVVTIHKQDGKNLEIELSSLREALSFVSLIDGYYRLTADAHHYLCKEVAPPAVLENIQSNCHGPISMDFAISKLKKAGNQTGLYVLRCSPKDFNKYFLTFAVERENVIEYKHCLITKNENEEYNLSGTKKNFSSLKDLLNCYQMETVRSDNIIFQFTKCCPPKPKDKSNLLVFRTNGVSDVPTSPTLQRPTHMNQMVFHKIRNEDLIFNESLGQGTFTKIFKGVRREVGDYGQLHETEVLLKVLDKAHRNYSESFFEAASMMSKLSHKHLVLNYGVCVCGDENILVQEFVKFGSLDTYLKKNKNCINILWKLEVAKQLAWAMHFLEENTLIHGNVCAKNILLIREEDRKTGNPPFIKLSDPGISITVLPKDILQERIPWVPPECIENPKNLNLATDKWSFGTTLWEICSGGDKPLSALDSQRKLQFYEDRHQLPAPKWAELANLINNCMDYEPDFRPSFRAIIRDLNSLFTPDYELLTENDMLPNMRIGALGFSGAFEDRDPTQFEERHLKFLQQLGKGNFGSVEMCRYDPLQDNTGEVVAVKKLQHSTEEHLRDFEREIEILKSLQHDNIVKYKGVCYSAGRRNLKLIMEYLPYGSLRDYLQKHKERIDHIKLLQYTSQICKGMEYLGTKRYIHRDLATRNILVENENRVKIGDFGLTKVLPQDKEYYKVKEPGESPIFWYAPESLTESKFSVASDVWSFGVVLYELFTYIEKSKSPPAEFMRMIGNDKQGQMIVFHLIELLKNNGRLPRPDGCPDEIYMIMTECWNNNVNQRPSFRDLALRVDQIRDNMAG

Compound | Kd [µM]
CN(Cc1ccc(Nc2nc(N)n(C(=O)c3c(F)cccc3F)n2)cc1)C(=S)Nc1ccc2c(c1)C(=O)OC21c2ccc(O)cc2Oc2cc(O)ccc21 | 0.205
N#Cc1ccc(Nc2nc(N)cc(-n3ccc(CO)n3)n2)cc1 | 57.3
N#Cc1ccc(Nc2nc(N)nc(-c3ccc(CO)o3)n2)cc1 | 122
CS(=O)(=O)NCc1cn(-c2nc(N)nc(Nc3ccc(C#N)cc3)n2)nn1 | 106
Cc1cc(C)n2c1C=C1C=CC(CCC(=O)NCCNC(=O)O[C@H]3[C@@H](O)[C@H](n4cnc5c(N)ncnc54)O[C@@H]3COP(=O)(O)OP(=O)(O)OP(=O)(O)O)=[N+]1[B-]2(F)F | 7
Nc1nc(Nc2ccc(C(=O)NCCCCCNC(=S)Nc3ccc4c(c3)C(=O)OC43c4ccc(O)cc4Oc4cc(O)ccc43)cc2)nn1C(=O)c1c(F)cccc1F | 0.227
